Test results published in PubChem BioAssay AID330 (DTP/NCI, 2004).
Where “and” joins values, the source holds several entries; their conditions need not be identical. Identical values can stand only once. Inconclusive results and toxic doses are left out.

Tested on: P388 leukemia ip, CD2F1 mice, survival T/C
Test: NCI In Vivo Anticancer Drug Screen. Data for tumor model P388 Leukemia (intraperitoneal) in CD2F1 (CDF1) mice
Conditions: endpoint: median survival time, higher = longer survival
Outline: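 Mice carrying the transplanted tumor received test compound or vehicle. Survival was recorded in each group, and the value is the treated-group measurement divided by that of the vehicle-treated control group.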

[1] = dose: 50.0 mg/kg/injection, schedule: Q01DX005 (ip), vehicle: Klucel (hydroxypropylcellulose) (HPC)
[2] = dose: 100.0 mg/kg/injection, schedule: Q01DX005 (ip), vehicle: Klucel (hydroxypropylcellulose) (HPC)
[3] = dose: 200.0 mg/kg/injection, schedule: Q01DX005 (ip), vehicle: Klucel (hydroxypropylcellulose) (HPC)
[4] = dose: 100.0 mg/kg/injection, schedule: Q04DX002 (ip), vehicle: Klucel (hydroxypropylcellulose) (HPC)
[5] = dose: 60.0 mg/kg/injection, schedule: Q01DX005 (ip), vehicle: saline with Tween-80
[6] = dose: 120.0 mg/kg/injection, schedule: Q01DX005 (ip), vehicle: saline with Tween-80
[7] = dose: 240.0 mg/kg/injection, schedule: Q01DX005 (ip), vehicle: saline with Tween-80
[8] = dose: 12.5 mg/kg/injection, schedule: Q01DX009 (ip), vehicle: saline with Tween-80
[9] = dose: 25.0 mg/kg/injection, schedule: Q01DX009 (ip), vehicle: saline with Tween-80
[10] = dose: 50.0 mg/kg/injection, schedule: Q01DX009 (ip), vehicle: saline with Tween-80
[11] = dose: 100.0 mg/kg/injection, schedule: Q04DX002 (ip), vehicle: saline with Tween-80
[12] = dose: 200.0 mg/kg/injection, schedule: Q04DX002 (ip), vehicle: saline with Tween-80
[13] = dose: 60.0 mg/kg/injection, schedule: Q01DX005 (ip), vehicle: Klucel (hydroxypropylcellulose) (HPC)
[14] = dose: 120.0 mg/kg/injection, schedule: Q01DX005 (ip), vehicle: Klucel (hydroxypropylcellulose) (HPC)
[15] = dose: 100.0 mg/kg/injection, schedule: Q01DX001 (ip), vehicle: saline with Tween-80
[16] = dose: 200.0 mg/kg/injection, schedule: Q01DX001 (ip), vehicle: saline with Tween-80
[17] = dose: 400.0 mg/kg/injection, schedule: Q01DX001 (ip), vehicle: saline with Tween-80
[18] = dose: 100.0 mg/kg/injection, schedule: Q01DX009 (ip), vehicle: saline with Tween-80
[19] = dose: 200.0 mg/kg/injection, schedule: Q01DX009 (ip), vehicle: saline with Tween-80
[20] = dose: 25.0 mg/kg/injection, schedule: Q01DX009 (ip), vehicle: saline
[21] = dose: 50.0 mg/kg/injection, schedule: Q01DX009 (ip), vehicle: saline
[22] = dose: 50.0 mg/kg/injection, schedule: Q01DX009 (ip), vehicle: Klucel (hydroxypropylcellulose) (HPC)
[23] = dose: 100.0 mg/kg/injection, schedule: Q01DX009 (ip), vehicle: Klucel (hydroxypropylcellulose) (HPC)
[24] = dose: 200.0 mg/kg/injection, schedule: Q01DX009 (ip), vehicle: Klucel (hydroxypropylcellulose) (HPC)

Cc1ccccc1-n1c(C)nc2[nH]ncc2c1=O
T/C [1]: 105 % of control
T/C [2]: 98 % of control
T/C [3]: 96 % of control

CC1(C)N=C(Oc2cc(Cl)cc(Cl)c2)NC(=S)N1
T/C (dose: 60.0 mg/kg/injection, schedule: Q01DX005 (ip), vehicle: DMSO): 109 % of control
T/C (dose: 120.0 mg/kg/injection, schedule: Q01DX005 (ip), vehicle: DMSO): 100 % of control
T/C (dose: 240.0 mg/kg/injection, schedule: Q01DX005 (ip), vehicle: DMSO): 97 % of control

CNC(=O)c1ccccc1NC(=O)c1ccccc1[N+](=O)[O-]
T/C [4]: 102 % of control
T/C (dose: 200.0 mg/kg/injection, schedule: Q04DX002 (ip), vehicle: Klucel (hydroxypropylcellulose) (HPC)): 107 % of control
T/C (dose: 400.0 mg/kg/injection, schedule: Q04DX002 (ip), vehicle: Klucel (hydroxypropylcellulose) (HPC)): 103 % of control

COc1c(OC)c(C2(O)C(=O)N(C)c3ccccc32)c2c(c1C1(O)C(=O)N(C)c3ccccc31)OCO2 (stereo unspecified)
T/C [5]: 95 % of control
T/C [6]: 90 % of control
T/C [7]: 89 % of control

COc1cccc2c1C(=O)c1c(O)c3c(c(O)c1C2=O)C[C@@](O)(C(=O)CSc1nnc(C)s1)C[C@@H]3OC1CC(N)C(O)C(C)O1 (stereo partly specified)
T/C (dose: 6.25 mg/kg/injection, schedule: Q01DX009 (ip), vehicle: water): 154 % of control
T/C (dose: 12.5 mg/kg/injection, schedule: Q01DX009 (ip), vehicle: water): 155 % of control and 158 % of control

COc1ccc(NC(=O)C(COCc2ccccc2)C(C)=O)cc1 (stereo unspecified)
T/C [5]: 94 % of control
T/C [6]: 91 % of control
T/C [7]: 92 % of control

CCOC(=O)c1cc2c(=O)oc3ccccc3c2oc1=O
T/C [8]: 105 % of control
T/C [9]: 98 % of control
T/C [10]: 100 % of control

CS/C(N)=N\NCCC(=O)Nc1c(C)cccc1C
T/C [11]: 100 % of control
T/C [12]: 91 % of control
T/C (dose: 400.0 mg/kg/injection, schedule: Q04DX002 (ip), vehicle: saline with Tween-80): 91 % of control

[CH3][Sn]([CH3])([N]=C=S)[N]=C=S.c1ccc(-c2nnc(-c3ccccn3)nc2-c2ccccc2)cc1
T/C [13]: 100 % of control
T/C [14]: 104 % of control

O=C(NC1c2ccccc2Oc2ccccc21)c1ccccc1
T/C (dose: 12.5 mg/kg/injection, schedule: Q04DX003 (ip), vehicle: distilled water + Tween-80): 93 % of control
T/C (dose: 25.0 mg/kg/injection, schedule: Q04DX003 (ip), vehicle: distilled water + Tween-80): 92 % of control
T/C (dose: 50.0 mg/kg/injection, schedule: Q04DX003 (ip), vehicle: distilled water + Tween-80): 93 % of control
T/C (dose: 100.0 mg/kg/injection, schedule: Q04DX003 (ip), vehicle: distilled water + Tween-80): 93 % of control

Cc1nn(-c2ccccc2)c(=O)n2nnnc12
T/C [15]: 96 % of control
T/C [16]: 94 % of control
T/C [17]: 96 % of control

O=C([O-])c1ccccc1[O-].[Cu+2].c1cnc2c(c1)ccc1cccnc12
T/C [4]: 109 % of control

CN1C2=C(C(=O)CC2)C(c2ccccc2)C2=C1CCC2=O
T/C [15]: 96 % of control
T/C [16]: 96 % of control
T/C [17]: 96 % of control

CC(C)NC(=O)OCc1c(COC(=O)NC(C)C)c(S(=O)c2ccccc2)n2c1CCC2 (stereo unspecified)
T/C (dose: 25.0 mg/kg/injection, schedule: Q01DX005 (ip), vehicle: distilled water + Tween-80): 113 % of control
T/C (dose: 50.0 mg/kg/injection, schedule: Q01DX005 (ip), vehicle: distilled water + Tween-80): 110 % of control
T/C (dose: 100.0 mg/kg/injection, schedule: Q01DX005 (ip), vehicle: distilled water + Tween-80): 113 % of control

COc1cc2ccc1NC(=O)N1CCN(CC1)C(=O)Nc1ccc(cc1OC)-c1ccc(c(OC)c1)NC(=O)N1CCN(CC1)C(=O)Nc1ccc-2cc1OC
T/C [1]: 101 % of control
T/C [2]: 98 % of control
T/C [3]: 102 % of control

COC(=O)c1n[nH]n(Cc2ccccc2)c1=O (tested in a mixture with another compound)
T/C [1]: 103 % of control
T/C [2]: 92 % of control
T/C [3]: 92 % of control

O=C(Nc1ccccc1)/C(N=Nc1cc(S(=O)(=O)O)ccc1Cl)=N/Nc1cc(S(=O)(=O)O)ccc1Cl
T/C [10]: 98 % of control
T/C [18]: 96 % of control
T/C [19]: 86 % of control

CCCCCCC(=O)/C=C/c1ccc(OC)c(OC)c1OC
T/C [10]: 96 % of control
T/C [18]: 96 % of control
T/C [19]: 102 % of control

COc1cc(/C=N/n2c(-c3ccccc3)nc3ccccc3c2=O)cc(Br)c1O
T/C [13]: 89 % of control
T/C [14]: 87 % of control
T/C (dose: 240.0 mg/kg/injection, schedule: Q01DX005 (ip), vehicle: Klucel (hydroxypropylcellulose) (HPC)): 87 % of control

COc1cc(C(Nc2ncccn2)c2cc3c(cc2OC(C)=O)OCO3)cc(OC)c1OC(C)=O (stereo unspecified)
T/C [5]: 105 % of control
T/C [6]: 100 % of control
T/C [7]: 99 % of control

Cc1cccc(Cl)c1NC(=O)C(C)N1CCCC1 (stereo unspecified)
T/C (dose: 12.5 mg/kg/injection, schedule: Q01DX009 (ip), vehicle: saline): 100 % of control
T/C [20]: 90 % of control
T/C [21]: 109 % of control

CCCCCCCCCCCC(=O)Nc1ncnc2nc[nH]c12
T/C [22]: 93 % of control
T/C [23]: 95 % of control
T/C [24]: 98 % of control
T/C (dose: 400.0 mg/kg/injection, schedule: Q01DX009 (ip), vehicle: Klucel (hydroxypropylcellulose) (HPC)): 104 % of control

O=C(Cc1nc2ccccc2n2nnnc12)NCCO
T/C (dose: 100.0 mg/kg/injection, schedule: Q04DX002 (ip), vehicle: Klucel + Tween-80): 99 % of control
T/C (dose: 200.0 mg/kg/injection, schedule: Q04DX002 (ip), vehicle: Klucel + Tween-80): 88 % of control
T/C (dose: 400.0 mg/kg/injection, schedule: Q04DX002 (ip), vehicle: Klucel + Tween-80): 92 % of control

COc1cc(C(=O)c2c(OC)cccc2C(=O)O)c(OC)cc1C
T/C [9]: 101 % of control
T/C [10]: 105 % of control
T/C [18]: 110 % of control
T/C [19]: 99 % of control
T/C (dose: 400.0 mg/kg/injection, schedule: Q01DX009 (ip), vehicle: saline with Tween-80): 99 % of control

CSc1nc(N)c(C(=O)Nc2ccc3ccccc3c2)s1
T/C [22]: 107 % of control
T/C [23]: 98 % of control
T/C [24]: 99 % of control

CCOC(=O)c1ccc(NC(=O)N2CC(C)OC(C)C2)cc1 (stereo unspecified)
T/C [10]: 87 % of control
T/C [18]: 97 % of control
T/C [19]: 97 % of control

CC(C)(C)C(N)=S
T/C (dose: 50.0 mg/kg/injection, schedule: Q01DX005 (ip), vehicle: saline): 103 % of control
T/C (dose: 100.0 mg/kg/injection, schedule: Q01DX005 (ip), vehicle: saline): 101 % of control
T/C (dose: 200.0 mg/kg/injection, schedule: Q01DX005 (ip), vehicle: saline): 101 % of control

OC1CN(C(c2ccccc2)c2ccccc2)C1
T/C [22]: 100 % of control
T/C [23]: 108 % of control
T/C [24]: 104 % of control

CC1CC2OC(=O)C3=C2C(CCC3)C12CC(c1ccoc1)OC2=O (stereo unspecified)
T/C [8]: 91 % of control
T/C [9]: 91 % of control and 89 % of control
T/C [10]: 93 % of control

O=C(O)CC[S-].[Ag+]
T/C (dose: 100.0 mg/kg/injection, schedule: Q04DX003 (ip), vehicle: saline): 100 % of control
T/C (dose: 200.0 mg/kg/injection, schedule: Q04DX003 (ip), vehicle: saline): 100 % of control
T/C (dose: 400.0 mg/kg/injection, schedule: Q04DX003 (ip), vehicle: saline): 95 % of control

[Co].[NH-]CC[NH-].[NH-]CC[NH-].[NH-]CC[NH-]
T/C [20]: 100 % of control
T/C [21]: 111 % of control
T/C (dose: 50.0 mg/kg/injection, schedule: Q04DX002 (ip), vehicle: saline with Tween-80): 100 % of control
T/C (dose: 100.0 mg/kg/injection, schedule: Q01DX009 (ip), vehicle: saline): 105 % of control
T/C [11]: 102 % of control
T/C [12]: 106 % of control
